Experiments:
CYP2C8 = target: T1, CYP2C8 (Homo sapiens, UniProt P10632); experiment: Metabolism in transgenic HEK293 cells expressing CYP2C8; type: in vitro ADME; settings: 20 µM parent PCB, 24 h, supernatant
T1 construct: V5-His (vector-encoded) (C); expressed in transfected cells
T1 sequence (P10632 1-490): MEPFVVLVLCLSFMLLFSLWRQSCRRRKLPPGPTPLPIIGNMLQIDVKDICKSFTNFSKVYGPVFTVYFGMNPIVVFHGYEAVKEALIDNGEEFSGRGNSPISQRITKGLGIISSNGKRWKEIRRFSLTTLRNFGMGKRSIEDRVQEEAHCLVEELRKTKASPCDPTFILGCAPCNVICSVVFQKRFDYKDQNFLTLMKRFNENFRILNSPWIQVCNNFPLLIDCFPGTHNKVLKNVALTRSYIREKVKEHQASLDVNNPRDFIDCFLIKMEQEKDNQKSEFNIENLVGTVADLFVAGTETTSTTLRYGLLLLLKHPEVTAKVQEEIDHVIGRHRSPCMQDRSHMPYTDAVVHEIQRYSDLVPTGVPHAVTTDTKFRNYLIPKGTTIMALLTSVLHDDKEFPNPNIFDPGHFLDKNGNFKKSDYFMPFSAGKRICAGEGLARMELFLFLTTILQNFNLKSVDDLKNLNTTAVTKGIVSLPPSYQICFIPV
Experimental: (§1) For the generation of transgenic cell lines, we used semi-adherent HEK293 cells (DSMZ, ACC305, human embryonic kidney cells) which were cultured on a daily basis in DMEM medium supplemented with 10% (FCS) and 1% penicillin/streptomycin. In a first step CYP1A2, CYP2C8, CYP2C9, CYP3A4, CYP2A6, and CYP2E1 cDNA were cloned into the plasmid pcDNATM3.1/V5-His TOPO® using human liver RNA as a template and using the following primers: CYP1A2 for5′-[…]-3′, CYP1A2 rev 5′-[…]-3′; CYP2C8 for 5′-[…]-3′, CYP2C8 rev 5′-[…]-3′; CYP2C9 for 5′-[…]-3′, CYP2C9 rev 5′-[…]-3′; CYP3A4 for 5′-[…]-3′, CYP3A4 rev 5′-[…]-3′, CYP2A6 for 5′-[…]-3′, CYP2A6 rev 5′-[…]-3′; CYP2E1 for 5′-[…]-3′, CYP2E1 rev 5′-[…]-3′. Final constructs were verified with Sanger DNA sequencing and restriction digestion. For transfection, 3 × 10^6 HEK293 cells were pre-incubated in a 10 cm dish in DMEM medium with 10% FCS, but without antibiotics, for 18 to 24 h. When the cells reached approximately 70% confluency, they were transfected using TransIT-LT1 transfection reagent (Biozol, Eiching, Germany). The TransIT-LT1 reagent was warmed to room temperature and vortexed. 1.63 mL Opti-MEM, 16.25 µL plasmid DNA (1 µg/µL), and 48.75 µL TransIT-LT1 reagent were mixed and incubated for 15 to 30 min. The mixture was then added dropwise to the medium of the cells, and the cells were incubated again at 37 °C and 5% CO2. After 24 h, the medium was replaced with standard medium and geneticin was added for selection (1 mg/mL). Cells were selected for 6–8 weeks in bulk culture, and single cell clones were obtained subsequently by limiting dilution. Each clone was checked for insertion by PCR using genomic DNA as a template.
Parallel samples were run without the addition of PCBs. At a confluence of 80%, PCBs (20 μM each, dissolved in ethanol) were added and cells were incubated for 24 h before harvest of supernatants. Supernatants were diluted 1:2 with 80 μL acetate buffer 0.1 M (pH = 5.3). 100 μL of this dilution were further incubated with 100 μL of ammonium acetate buffer 0.1 M (pH = 5.3) and 5 μL of β-Glucuronidase/Arylsulfatase enzyme overnight in a drying oven at 37 °C for enzymatic hydrolysis to release conjugated compounds. 50 μL of a mix of internal standards (10 ng/mL) and 600 μL of methanol were added to the samples, then mixed by vortexing for 1 min and centrifuged for 10 min at 3400g. The individual supernatants were transferred to glass LC vials and evaporated to approximately 50 μL at 45 °C under a gentle stream of nitrogen. Finally, 0.1 mol/ L ammonium acetate buffer was added to a final volume of 100 μL and then transferred to an insert for analysis. […]

CYP2E1 = CYP2E1 (Homo sapiens, UniProt P05181); experiment: Metabolism in transgenic HEK293 cells expressing CYP2E1; settings: 20 µM parent PCB, 24 h, supernatant
Experimental: as §1
Parallel samples were run without the addition of PCBs. At a confluence of 80%, PCBs (20 μM each, dissolved in ethanol) were added and cells were incubated for 24 h before harvest of supernatants. Supernatants were diluted 1:2 with 80 μL acetate buffer 0.1 M (pH = 5.3). 100 μL of this dilution were further incubated with 100 μL of ammonium acetate buffer 0.1 M (pH = 5.3) and 5 μL of β-Glucuronidase/Arylsulfatase enzyme overnight in a drying oven at 37 °C for enzymatic hydrolysis to release conjugated compounds. 50 μL of a mix of internal standards (10 ng/mL) and 600 μL of methanol were added to the samples, then mixed by vortexing for 1 min and centrifuged for 10 min at 3400g. The individual supernatants were transferred to glass LC vials and evaporated to approximately 50 μL at 45 °C under a gentle stream of nitrogen. Finally, 0.1 mol/ L ammonium acetate buffer was added to a final volume of 100 μL and then transferred to an insert for analysis.
HEK293 cells overexpressing the respective CYP enzymes were seeded onto 6-well plates and were treated with or without 10 µM of the respective probe drug in DMEM medium for 24 hours at 37 °C and 5 % CO2. After incubation 200 µL DMEM were collected, cells were washed with PBS and adherent cells were lysed in 500 µL methanol for 20 minutes. Analytes were measured by LC-MS/MS either in methanol cell lysates or in DMEM supernatant.
50 µL of DMEM samples were protein precipitated by adding 200 µL of methanol and were centrifuged for 20 min, 17,000 g and 4°C. Supernatants were diluted in water or 40 % methanol according to dilution factor. Methanol cell lysates were diluted ½ with water and centrifuged for 20 min, 17,000 g and 4°C. 5 µL of the processed samples were injected for LC-MS analysis.

Measured: Quantification of metabolites generated from PCB28, 52, and 101

Sequence of CYP2E1 (P05181 whole entry): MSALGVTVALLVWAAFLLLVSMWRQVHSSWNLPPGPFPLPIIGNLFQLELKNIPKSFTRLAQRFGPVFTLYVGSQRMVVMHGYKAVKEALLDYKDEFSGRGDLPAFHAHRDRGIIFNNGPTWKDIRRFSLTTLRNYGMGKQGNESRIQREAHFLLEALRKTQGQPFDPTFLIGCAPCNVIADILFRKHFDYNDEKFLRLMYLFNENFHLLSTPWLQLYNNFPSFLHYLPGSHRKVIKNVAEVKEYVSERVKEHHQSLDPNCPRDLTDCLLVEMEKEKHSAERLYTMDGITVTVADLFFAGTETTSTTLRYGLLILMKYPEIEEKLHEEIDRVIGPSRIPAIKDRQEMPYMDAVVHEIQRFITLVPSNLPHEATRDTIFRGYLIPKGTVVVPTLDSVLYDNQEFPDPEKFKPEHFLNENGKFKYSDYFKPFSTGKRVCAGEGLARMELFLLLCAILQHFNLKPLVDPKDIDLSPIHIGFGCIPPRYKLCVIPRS

Oc1cc(Cl)c(-c2ccc(Cl)cc2)cc1Cl [4-OHCB31, 2,4′,5-trichloro-4-biphenylol]
<LOQ: CYP2C8; CYP2C8 Clone A3 | CYP2C8; CYP2C8 Clone D8 | CYP2C8; CYP2C8 Clone D9 | CYP2E1; CYP2E1 Clone B4 | CYP2E1; CYP2E1 Clone B5 | CYP2E1; CYP2E1 Clone E6

Oc1cc(-c2ccc(Cl)cc2)c(Cl)cc1Cl [5-OHCB28, 2,4,4′-trichloro-5-biphenylol]
<LOQ: CYP2C8; CYP2C8 Clone A3 | CYP2C8; CYP2C8 Clone D8 | CYP2C8; CYP2C8 Clone D9 | CYP2E1; CYP2E1 Clone B4 | CYP2E1; CYP2E1 Clone B5 | CYP2E1; CYP2E1 Clone E6

From PMC11489226 (Archives of Toxicology, 2024)
